Assay results as given in patent publication US6492377B1, “Imidazotriazolopyrimidines with adenosine-antagonistic activity” (Boehringer Ingelheim Pharma KG, priority 1998, dated 2002).

Tests used:
[1] = target: T1, human A1 adenosine Receptor (Homo sapiens, UniProt P30542); experiment: KiA1 (human) receptor binding
T1 sequence (P30542 1-326): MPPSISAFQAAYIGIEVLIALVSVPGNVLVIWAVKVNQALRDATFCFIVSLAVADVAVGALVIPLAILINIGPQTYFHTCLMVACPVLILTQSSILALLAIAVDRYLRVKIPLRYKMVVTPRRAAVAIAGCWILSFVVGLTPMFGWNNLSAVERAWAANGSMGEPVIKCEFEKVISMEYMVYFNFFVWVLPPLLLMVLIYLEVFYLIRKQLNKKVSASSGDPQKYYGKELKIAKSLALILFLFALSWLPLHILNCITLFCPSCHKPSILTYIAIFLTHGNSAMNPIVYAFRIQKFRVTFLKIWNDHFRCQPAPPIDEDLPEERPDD
Description: The receptor binding values described hereinafter were determined analogously to Ensinger et al. in “Cloning and functional characterisation of human A1 adenosine Receptor—Biochemical and Biophysical Communications, Vol 187, No. 2, 919-926, 1992”.
The Table which follows contains KiA1 (human) receptor binding values.

[2] = target: T2, human A3-adenosine receptor (Homo sapiens, UniProt P0DMS8); experiment: KiA3 (human) receptor binding
T2 sequence (P0DMS8 1-318): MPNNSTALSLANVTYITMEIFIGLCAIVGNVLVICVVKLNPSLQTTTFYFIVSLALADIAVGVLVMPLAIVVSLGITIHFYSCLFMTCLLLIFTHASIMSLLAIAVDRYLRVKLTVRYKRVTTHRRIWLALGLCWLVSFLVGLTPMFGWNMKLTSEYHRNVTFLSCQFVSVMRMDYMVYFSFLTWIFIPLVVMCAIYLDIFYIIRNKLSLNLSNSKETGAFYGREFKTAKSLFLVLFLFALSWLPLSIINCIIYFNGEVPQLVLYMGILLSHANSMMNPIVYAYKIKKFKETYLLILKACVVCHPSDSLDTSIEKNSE
Description: The A3 receptor binding values given hereinafter were determined analogously to […]. “Molecular cloning and characterization of the human A3-adenosine receptor” (Proc. Natl. Acad. Sci. USA 90, 10365-10369, 1993).

“4-Ethyl-2-(2-phenylethyl)-7-n-propyl-imidazo[4.5-e]-s-triazolo[1.5-a]pyrimidin-5-one [Example 83]” showed a Ki [1] of 8.1 nM.
Substance “4-Ethyl-7-methyl-2-(2-phenylethyl)-imidazo[4.5-e]-s-triazolo[1.5-a]pyrimidin-5-one [Example 81]” has a Ki [2] of 7.2 nM.
